# Reference: US20230416330A1, “Optimized GIP Peptide Analogues” (Antag Therapeutics ApS, priority 2019, published 2023)
# Positions of bridges follow the written chain, without caps; N, C: chain ends. Non-standard residues stand in square brackets, D forms with d. Residues, ends and D or L forms follow the SMILES beside them. Groups on a side chain read outwards from the residue. Chains are numbered I, II in the order given. No end group written: not given here. *: point of attachment. C16 diacid = O=C(O)CCCCCCCCCCCCCCC(=O)*; Palmitoyl = CCCCCCCCCCCCCCCC(=O)*; Aib = CC(C)(N)C(=O)O
# Tests used:
# [1] = Physical stability: fibril formation in Thioflavin T (ThT) assay with agitation; format: physicochemical; conditions: for Avr lag time / Avr lag time (h): 25° C., agitation
# Procedure: Continuous measurement of the fluorescence emission at 486 nm can be used as a measure of fibrillation behavior of peptides and proteins. The time until onset of fibrillation or fibrillation lag time is estimated here by defining the lag time (Tlag) as the point in time where the signal relative to the pre-transition baseline has reached 10% of the post-transition baseline.
# 50 mM sodium phosphate buffer for dissolving some samples was prepared in ultrapure water (Milli-Q® Reference A+ System, Merck) with a resistivity of 18.2 MΩ·cm. The buffer was adjusted to pH 7.4 and filtered.
# The ultrapure water (MilliQ) for dissolving some samples was adjusted to pH 7.4 with NaOH and filtered prior to sample preparation.
# (§1) Peptides were either dissolved in sodium phosphate buffer (50 mM, pH 7.4, filtered) or dissolved in ultrapure (MilliQ) water (adjusted to pH 7.4 with NaOH, filtered) (see Table 3). All peptide samples were prepared to a concentration of 1, 5, 7.5 or 15 mg/ml. All samples, with the exception of reference peptides GIP(3-30), AT158, and AT482 dissolved readily and produced clear and colorless solutions with gentle mixing. Peptide samples were subsequently filtered through 0.22 μm nylon filters (Q-Max® RR syringe filter, 13 mm, Frisenette, DK) to produce particle-free solutions. All samples were added to a 96-well plate reader for the ThT assay at t=0.
# For each sample, […] ThT (1 mM) was added to 1.2 mL peptide solution. From this sample mixture, an amount of 200 uL/well was pipetted into four or five wells (n=4 or 5). Blank samples (buffer+ThT) were also included. One 3 mm silica bead was added to each well containing samples and the plate was subjected to orbital rotation at 300 rpm to agitate and stress the samples. The temperature was kept at 25° C. throughout the measurement.
# [2] = Solubility by visual inspection of peptide solutions; format: physicochemical
# Procedure: as §1
# Clear visual appearance may be taken as an indicator of the immediate solubility of the peptide. […] Thus, A13Aib and/or N24E substitutions appear to increase solubility.
Compound,"Avr lag time ([1]; 1 mg/ml, TFA, Phosphate (7.4)) [h]","Visual appearance ([2]; 1 mg/ml, TFA, Phosphate (7.4))","Avr lag time (h) ([1]; 1 mg/ml, TFA, Phosphate (7.4))","Visual appearance ([2]; 7.5 mg/ml, Na, MilliQ (8))","Visual appearance ([2]; 15 mg/ml, Na, MilliQ (8))",other results
CC[C@H](C)[C@H](NC(=O)[C@H](C)NC(=O)[C@H](CC(=O)O)NC(=O)[C@H](CCSC)NC(=O)[C@H](C)NC(=O)[C@@H](NC(=O)[C@H](CO)NC(=O)[C@H](Cc1ccc(O)cc1)NC(=O)[C@H](CC(=O)O)NC(=O)[C@H](CO)NC(=O)[C@@H](NC(=O)[C@H](Cc1ccccc1)NC(=O)[C@@H](NC(=O)CNC(=O)[C@@H](N)CCC(=O)O)[C@@H](C)O)[C@@H](C)CC)[C@@H](C)CC)C(=O)N[C@@H](CCCCNC(=O)CCCCCCCCCCCCCCC(=O)O)C(=O)N[C@@H](CCC(N)=O)C(=O)N[C@@H](CCC(N)=O)C(=O)N[C@@H](CC(=O)O)C(=O)N[C@@H](Cc1ccccc1)C(=O)N[C@H](C(=O)N[C@@H](CCC(=O)O)C(=O)N[C@@H](Cc1c[nH]c2ccccc12)C(=O)N[C@@H](CC(C)C)C(=O)N[C@@H](CC(C)C)C(=O)N[C@@H](C)C(=O)N[C@@H](CCC(N)=O)C(=O)N[C@@H](CCCCN)C(=O)N1CCC[C@H]1C(=O)N[C@@H](CO)C(=O)N[C@@H](CO)C(=O)NCC(=O)N[C@@H](C)C(=O)N1CCC[C@H]1C(=O)N1CCC[C@H]1C(=O)N1CCC[C@H]1C(=O)N[C@@H](CO)C(=O)O)C(C)C [AT748] (H-EGTFISDYSIAMDAIK(C16 diacid)QQDFVEWLLAQKPSSGAPPPS-OH; N-terminus assumed),<24,Clear,,,,
CC[C@H](C)[C@H](NC(=O)[C@H](CO)NC(=O)[C@H](Cc1ccc(O)cc1)NC(=O)[C@H](CC(=O)O)NC(=O)[C@H](CO)NC(=O)[C@@H](NC(=O)[C@H](Cc1ccccc1)NC(=O)[C@@H](NC(=O)CNC(=O)[C@@H](N)CCC(=O)O)[C@@H](C)O)[C@@H](C)CC)C(=O)N[C@@H](C)C(=O)N[C@@H](CCSC)C(=O)N[C@@H](CC(=O)O)C(=O)N[C@@H](CCCCN)C(=O)N[C@@H](CCCCNC(=O)CCCCCCCCCCCCCCC(=O)O)C(=O)N[C@@H](Cc1c[nH]cn1)C(=O)N[C@@H](CCC(N)=O)C(=O)N[C@@H](CCC(N)=O)C(=O)N[C@@H](CC(=O)O)C(=O)N[C@@H](Cc1ccccc1)C(=O)N[C@H](C(=O)N[C@@H](CCC(=O)O)C(=O)N[C@@H](Cc1c[nH]c2ccccc12)C(=O)N[C@@H](CC(C)C)C(=O)N[C@@H](CC(C)C)C(=O)N[C@@H](C)C(=O)N[C@@H](CCC(N)=O)C(=O)N[C@@H](CCCCN)C(=O)N1CCC[C@H]1C(=O)N[C@@H](CO)C(=O)N[C@@H](CO)C(=O)NCC(=O)N[C@@H](C)C(=O)N1CCC[C@H]1C(=O)N1CCC[C@H]1C(=O)N1CCC[C@H]1C(=O)N[C@@H](CO)C(=O)O)C(C)C [AT742] (H-EGTFISDYSIAMDKK(C16 diacid)HQQDFVEWLLAQKPSSGAPPPS-OH; N-terminus assumed),,Clear,fnd (Fnd = fibrils not detected within experiment time (96 hours) with agitation.),,,
CC[C@H](C)[C@H](NC(=O)[C@H](CCCCN)NC(=O)[C@H](CCC(=O)O)NC(=O)[C@H](CC(C)C)NC(=O)C(C)(C)NC(=O)[C@@H](NC(=O)[C@H](CO)NC(=O)[C@H](Cc1ccc(O)cc1)NC(=O)[C@H](CCC(=O)O)NC(=O)[C@H](CO)NC(=O)[C@@H](NC(=O)[C@H](Cc1ccccc1)NC(=O)[C@@H](NC(=O)CNC(=O)[C@@H](N)CCC(=O)O)[C@@H](C)O)[C@@H](C)CC)[C@@H](C)CC)C(=O)N[C@@H](CCCCNC(=O)[C@H](C)NC(=O)[C@H](CCC(=O)O)NC(=O)[C@H](CC(C)C)NC(=O)[C@H](C)NC(=O)CCCCCCCCCCCCCCC(=O)O)C(=O)N[C@@H](CCC(N)=O)C(=O)N[C@@H](CCC(N)=O)C(=O)N[C@@H](CCC(=O)O)C(=O)N[C@@H](Cc1ccccc1)C(=O)N[C@H](C(=O)N[C@@H](CCC(=O)O)C(=O)N[C@@H](Cc1c[nH]c2ccccc12)C(=O)N[C@@H](CC(C)C)C(=O)N[C@@H](CC(C)C)C(=O)N[C@@H](C)C(=O)N[C@@H](CCC(N)=O)C(=O)N[C@@H](CCCCN)C(=O)N1CCC[C@H]1C(=O)N[C@@H](CO)C(=O)N[C@@H](CO)C(=O)NCC(=O)N[C@@H](C)C(=O)N1CCC[C@H]1C(=O)N1CCC[C@H]1C(=O)N1CCC[C@H]1C(=O)N[C@@H](CO)C(=O)O)C(C)C [AT725] (H-EGTFISEYSI[Aib]LEKIK([Ala-Glu-Leu-Ala-C16 diacid])QQEFVEWLLAQKPSSGAPPPS-OH; N-terminus assumed),,Clear,fnd (Fnd = fibrils not detected within experiment time (96 hours) with agitation.),,,
CCCCCCCCCCCCCCCC(=O)NCCCC[C@H](NC(=O)[C@@H](NC(=O)[C@H](CCCCN)NC(=O)[C@H](CC(=O)O)NC(=O)[C@H](CCSC)NC(=O)[C@H](C)NC(=O)[C@@H](NC(=O)[C@H](CO)NC(=O)[C@H](Cc1ccc(O)cc1)NC(=O)[C@H](CC(=O)O)NC(=O)[C@H](CO)NC(=O)[C@@H](NC(=O)[C@H](Cc1ccccc1)NC(=O)[C@@H](NC(=O)CNC(=O)[C@@H](N)CCC(=O)O)[C@@H](C)O)[C@@H](C)CC)[C@@H](C)CC)[C@@H](C)CC)C(=O)N[C@@H](CCC(N)=O)C(=O)N[C@@H](CCC(N)=O)C(=O)N[C@@H](CC(=O)O)C(=O)N[C@@H](Cc1ccccc1)C(=O)N[C@H](C(=O)N[C@@H](CCC(=O)O)C(=O)N[C@@H](Cc1c[nH]c2ccccc12)C(=O)N[C@@H](CC(C)C)C(=O)N[C@@H](CC(C)C)C(=O)N[C@@H](C)C(=O)N[C@@H](CCC(N)=O)C(=O)N[C@@H](CCCCN)C(=O)N1CCC[C@H]1C(=O)N[C@@H](CO)C(=O)N[C@@H](CO)C(=O)NCC(=O)N[C@@H](C)C(=O)N1CCC[C@H]1C(=O)N1CCC[C@H]1C(=O)N1CCC[C@H]1C(=O)N[C@@H](CO)C(=O)O)C(C)C [AT751] (H-EGTFISDYSIAMDKIK(Palmitoyl)QQDFVEWLLAQKPSSGAPPPS-OH; N-terminus assumed),<24,Clear,,,,
"CC[C@H](C)[C@H](NC(=O)[C@H](CO)NC(=O)[C@H](Cc1ccc(O)cc1)NC(=O)[C@H](CC(=O)O)NC(=O)[C@H](CO)NC(=O)[C@@H](NC(=O)[C@H](Cc1ccccc1)NC(=O)[C@@H](NC(=O)CNC(=O)[C@@H](N)CCC(=O)O)[C@@H](C)O)[C@@H](C)CC)C(=O)N[C@@H](C)C(=O)N[C@@H](CCSC)C(=O)N[C@@H](CC(=O)O)C(=O)N[C@@H](CCCCN)C(=O)N[C@H](C(=O)N[C@@H](CCCCNC(=O)CCCCCCCCCCCCCCC(=O)O)C(=O)N[C@@H](CCC(N)=O)C(=O)N[C@@H](CCC(N)=O)C(=O)N[C@@H](CC(=O)O)C(=O)N[C@@H](Cc1ccccc1)C(=O)N[C@H](C(=O)N[C@@H](CC(N)=O)C(=O)N[C@@H](Cc1c[nH]c2ccccc12)C(=O)N[C@@H](CC(C)C)C(=O)N[C@@H](CC(C)C)C(=O)N[C@@H](C)C(=O)N[C@@H](CCC(N)=O)C(=O)N[C@@H](CCCCN)C(=O)N1CCC[C@H]1C(=O)N[C@@H](CO)C(=O)N[C@@H](CO)C(=O)NCC(=O)N[C@@H](C)C(=O)N1CCC[C@H]1C(=O)N1CCC[C@H]1C(=O)N1CCC[C@H]1C(=O)N[C@@H](CO)C(=O)O)C(C)C)[C@@H](C)CC [AT364, GIP(3-30) [H18K] C16diacid+Cex(31-39), reference compound] (H-EGTFISDYSIAMDKIK(C16 diacid)QQDFVNWLLAQKPSSGAPPPS-OH; N-terminus assumed)",<18,Clear,,Clear,Clear,"Avr lag time ([1]; 5 mg/ml, Na, MilliQ): 20 to 50 h; Avr lag time ([1]; 5 mg/ml, TFA, MilliQ (8)): <18 h; Avr lag time ([1]; 5 mg/ml, TFA, Phosphate): <18 h; Fibril formation (FIG. 1) ([1]; in phosphate buffer, about 94 h, orbital rotation): forms fibrils; Visual appearance ([2]; 1 mg/ml, CI, Phosphate (7.4)): Clear; Visual appearance ([2]; 1 mg/ml, Na, MilliQ): Clear; Visual appearance ([2]; 5 mg/ml, Na, MilliQ): Clear; Visual appearance ([2]; 5 mg/ml, TFA, MilliQ (8)): Clear; Visual appearance ([2]; 5 mg/ml, TFA, Phosphate): Clear"
I: EGTFISEYSI[Aib]LEKIKQQEFVEWLLAQKPSSGAPPPS-OH / II: {C16 diacid}-GGGGS (amide I:16-II:C) [AT722],,Clear,fnd (Fnd = fibrils not detected within experiment time (96 hours) with agitation.),Clear,Clear,"Avr lag time (h) ([1]; 7.5 mg/ml, Na, MilliQ (8)): fnd (Fnd = fibrils not detected within experiment time (96 hours) with agitation.); Avr lag time (h) ([1]; 15 mg/ml, Na, MilliQ (8)): fnd (Fnd = fibrils not detected within experiment time (96 hours) with agitation.)"
